Tests used:
CFTR G551D mutant = molecular target: T1, CFTR G551D mutant (Homo sapiens, UniProt P13569, G551D); assay: YFP-halide influx assay for the CFTR-G551D mutation (HEK293 cells); type: cell-based; details: forskolin 10.67 μM
T1 construct: expressed in transfected cells; host or cells: HEK293 cells, reverse transfection with plasmids
In short: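 Channel opening read as I⁻-driven quenching of a YFP H148Q/I152L/F47L reporter over 7 s post-injection, expressed as 1−F/F0 and fitted against concentration for EC50. Cells were HEK293 co-transfected at seeding with G551D CFTR plus reporter, then grown 24 h at 37 °C, 5% CO2.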

CFTR ΔF508 mutant = molecular target: T2, CFTR ΔF508 mutant (Homo sapiens, UniProt P13569, DEL508-508); assay: YFP-halide influx assay for the CFTR-ΔF508 mutation (CFBE41o- cells); type: cell-based; details: forskolin 10.67 μM; for EC50: from (1−F/F0) vs concentration plot
T2 construct: expressed in transfected cells; host or cells: CFBE41o- cells, adenoviral transduction
In short: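 EC50 derived from plotting 1−F/F0 (fluorescence 36 s after iodide injection over pre-injection value) against compound concentration. Cells: CFBE41o- transduced with ΔF508-CFTR and YFP quench reporter, corrected 24 h at 27° C or by a CFTR modulator at 37° C.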

T1 sequence (P13569 whole entry G551D): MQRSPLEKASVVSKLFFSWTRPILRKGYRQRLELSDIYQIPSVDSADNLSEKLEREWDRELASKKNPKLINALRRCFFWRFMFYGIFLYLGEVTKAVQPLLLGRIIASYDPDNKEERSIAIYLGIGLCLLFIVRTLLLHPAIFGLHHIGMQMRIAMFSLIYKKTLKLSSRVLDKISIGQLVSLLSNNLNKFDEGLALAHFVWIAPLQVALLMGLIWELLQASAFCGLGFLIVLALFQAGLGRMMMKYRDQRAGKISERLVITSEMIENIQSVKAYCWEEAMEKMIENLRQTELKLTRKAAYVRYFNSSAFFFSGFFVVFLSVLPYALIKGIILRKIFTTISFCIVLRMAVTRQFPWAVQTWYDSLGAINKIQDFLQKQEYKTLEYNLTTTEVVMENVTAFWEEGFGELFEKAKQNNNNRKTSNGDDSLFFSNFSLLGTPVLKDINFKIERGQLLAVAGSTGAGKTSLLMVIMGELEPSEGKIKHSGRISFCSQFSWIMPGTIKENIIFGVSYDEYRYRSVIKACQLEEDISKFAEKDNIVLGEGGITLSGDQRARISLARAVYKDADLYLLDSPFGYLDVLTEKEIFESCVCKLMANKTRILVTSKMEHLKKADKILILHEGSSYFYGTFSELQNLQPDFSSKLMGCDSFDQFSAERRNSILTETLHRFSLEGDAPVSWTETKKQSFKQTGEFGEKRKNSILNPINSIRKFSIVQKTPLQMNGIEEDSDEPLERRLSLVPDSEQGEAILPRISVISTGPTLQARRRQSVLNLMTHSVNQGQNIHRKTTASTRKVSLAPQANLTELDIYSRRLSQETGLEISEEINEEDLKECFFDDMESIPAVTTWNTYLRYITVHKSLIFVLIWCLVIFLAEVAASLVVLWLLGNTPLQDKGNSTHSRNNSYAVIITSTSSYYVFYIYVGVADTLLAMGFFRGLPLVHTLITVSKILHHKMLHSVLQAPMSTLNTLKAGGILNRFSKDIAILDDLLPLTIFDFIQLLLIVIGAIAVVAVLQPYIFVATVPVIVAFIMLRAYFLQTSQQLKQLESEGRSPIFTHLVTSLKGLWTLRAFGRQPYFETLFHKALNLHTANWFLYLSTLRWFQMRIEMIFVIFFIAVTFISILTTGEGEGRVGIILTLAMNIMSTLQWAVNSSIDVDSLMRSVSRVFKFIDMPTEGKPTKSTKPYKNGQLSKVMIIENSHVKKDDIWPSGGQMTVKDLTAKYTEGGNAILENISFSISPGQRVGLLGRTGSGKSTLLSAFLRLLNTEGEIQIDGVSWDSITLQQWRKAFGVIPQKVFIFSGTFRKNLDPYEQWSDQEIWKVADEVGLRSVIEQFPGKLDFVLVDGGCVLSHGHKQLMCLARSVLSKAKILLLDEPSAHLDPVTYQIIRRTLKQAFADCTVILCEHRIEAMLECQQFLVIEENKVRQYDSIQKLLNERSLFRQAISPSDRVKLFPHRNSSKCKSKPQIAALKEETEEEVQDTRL
T2 sequence (P13569 with tags, fused parts or gaps DEL508-508): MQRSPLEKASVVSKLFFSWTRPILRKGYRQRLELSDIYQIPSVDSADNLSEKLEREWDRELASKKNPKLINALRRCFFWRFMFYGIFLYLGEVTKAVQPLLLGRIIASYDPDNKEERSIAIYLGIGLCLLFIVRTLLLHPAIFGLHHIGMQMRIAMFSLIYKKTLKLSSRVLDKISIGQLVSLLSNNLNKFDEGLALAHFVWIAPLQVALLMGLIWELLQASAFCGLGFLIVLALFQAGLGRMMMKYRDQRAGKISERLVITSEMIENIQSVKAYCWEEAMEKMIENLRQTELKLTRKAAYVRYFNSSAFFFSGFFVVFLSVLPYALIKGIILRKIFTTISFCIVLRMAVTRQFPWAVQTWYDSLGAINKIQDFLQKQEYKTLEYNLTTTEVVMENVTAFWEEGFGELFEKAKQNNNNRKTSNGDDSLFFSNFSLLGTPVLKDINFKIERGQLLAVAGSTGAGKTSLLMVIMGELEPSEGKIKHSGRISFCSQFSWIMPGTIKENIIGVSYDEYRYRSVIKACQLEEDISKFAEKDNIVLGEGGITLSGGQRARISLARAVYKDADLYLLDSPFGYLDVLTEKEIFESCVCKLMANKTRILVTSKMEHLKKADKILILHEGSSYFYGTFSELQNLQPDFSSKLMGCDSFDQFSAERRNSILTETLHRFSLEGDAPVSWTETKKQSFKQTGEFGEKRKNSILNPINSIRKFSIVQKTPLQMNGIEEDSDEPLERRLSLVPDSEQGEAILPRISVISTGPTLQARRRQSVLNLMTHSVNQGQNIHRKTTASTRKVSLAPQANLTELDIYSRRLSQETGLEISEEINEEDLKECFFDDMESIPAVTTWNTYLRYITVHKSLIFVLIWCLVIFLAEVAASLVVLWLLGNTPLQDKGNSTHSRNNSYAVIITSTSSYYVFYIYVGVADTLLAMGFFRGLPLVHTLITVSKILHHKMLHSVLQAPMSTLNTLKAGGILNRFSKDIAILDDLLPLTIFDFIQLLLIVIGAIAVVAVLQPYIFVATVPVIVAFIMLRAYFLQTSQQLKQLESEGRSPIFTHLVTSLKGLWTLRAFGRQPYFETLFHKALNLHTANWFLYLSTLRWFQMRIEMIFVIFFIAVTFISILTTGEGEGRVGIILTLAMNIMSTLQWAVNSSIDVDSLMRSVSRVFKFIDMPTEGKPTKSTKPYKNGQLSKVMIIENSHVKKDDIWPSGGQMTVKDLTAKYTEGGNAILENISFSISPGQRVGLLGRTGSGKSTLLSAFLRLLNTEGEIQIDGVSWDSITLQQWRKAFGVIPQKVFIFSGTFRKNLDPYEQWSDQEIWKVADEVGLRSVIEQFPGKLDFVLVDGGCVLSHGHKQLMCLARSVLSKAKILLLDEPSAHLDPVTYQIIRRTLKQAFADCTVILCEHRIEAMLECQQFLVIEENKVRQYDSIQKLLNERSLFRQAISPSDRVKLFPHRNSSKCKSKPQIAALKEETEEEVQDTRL

% Activation (CFTR G551D mutant)	EC50 (CFTR G551D mutant)	% Activation (CFTR ΔF508 mutant)	EC50 (CFTR ΔF508 mutant)	SMILES
48.4%	816 nM	108.7%	40.8 nM	COCCCNC(=O)c1ncc(S(=O)(=O)c2ccc(C(F)(F)F)cc2)cc1N [Compound 222, 3-amino-N-(3-methoxypropyl)-5-{[4-(trifluoromethyl)phenyl]sulfonyl}pyridine-2-carboxamide]
40.8%	> 3330 nM	87.8%	135 nM	CO[C@H]1CCC[C@@H]1NC(=O)c1ncc(S(=O)(=O)c2ccc(C(F)(F)F)cc2)cc1N [Compound 293, 3-amino-N-[(1S,2S)-2-methoxycyclopentyl]-5-{[4-(trifluoromethyl)phenyl]sulfonyl}pyridine-2-carboxamide]
66.4%	392 nM	111.0%	6.9 nM	CC1CCN(S(=O)(=O)c2cnc(C(=O)NCC(O)C(F)(F)F)c(N)c2)CC1 (centres unmarked) [Compound 184, 3-amino-5-[(4-methylpiperidin-1-yl)sulfonyl]-N-(3,3,3-trifluoro-2-hydroxypropyl)pyridine-2-carboxamide]
65.4%	1820 nM	105.4%	25.7 nM	COC1CCN(S(=O)(=O)c2cnc(C(=O)NCC(O)C(F)(F)F)c(N)c2)CC1 (centres unmarked) [Compound 196, 3-amino-5-[(4-methoxypiperidin-1-yl)sulfonyl]-N-(3,3,3-trifluoro-2-hydroxypropyl)pyridine-2-carboxamide]
62.4%	864 nM	95.9%	13.4 nM	Nc1cc(S(=O)(=O)c2ccc(OC(F)(F)F)cc2F)cnc1C(=O)N1CC(F)(F)C1 [Compound 172, (3-amino-5-{[2-fluoro-4-(trifluoromethoxy)phenyl]sulfonyl}pyridin-2-yl)(3,3-difluoroazetidin-1-yl)methanone]
71.1%	3120 nM	105.0%	67.2 nM	Nc1cc(S(=O)(=O)c2ccc(OC(F)(F)F)cc2)cnc1C(=O)N1CC(N2CCOCC2)C1 [Compound 60, (3-amino-5-{[4-(trifluoromethoxy)phenyl]sulfonyl}pyridin-2-yl)[3-(morpholin-4-yl)azetidin-1-yl]methanone]
2.8%	> 5000 nM	82.0%	> 334 nM	C[C@H]1CCCN1S(=O)(=O)c1cnc(C(=O)N2CC(O)C2)c(N)c1 [Compound 272, (3-amino-5-{[(2S)-2-methylpyrrolidin-1-yl]sulfonyl}pyridin-2-yl) (3-hydroxyazetidin-1-yl)methanone]
50.3%	371 nM	118.3%	5.9 nM	CC(C)(O)C1CN(C(=O)c2ncc(S(=O)(=O)c3ccc(OC(F)(F)F)cc3F)cc2N)C1 [Compound 174, (3-amino-5-{[2-fluoro-4-(trifluoromethoxy)phenyl]sulfonyl}pyridin-2-yl)[3-(2-hydroxypropan-2-yl)azetidin-1-yl]methanone]
16.6%	> 1000 nM	87.3%	162 nM	C[C@H](O)CNC(=O)c1nc(-c2ccc(F)cc2)c(S(=O)(=O)C2CCCC2)cc1N [Compound 261, 3-amino-5-(cyclopentanesulfonyl)-6-(4-fluorophenyl)-N-[(2S)-2-hydroxypropyl]pyridine-2-carboxamide]
69.6%	420 nM	110.7%	3.7 nM	CN(Cc1ccc(F)cc1F)S(=O)(=O)c1cnc(C(=O)NCC(O)C(F)(F)F)c(N)c1 (centres unmarked) [Compound 137, 3-amino-5-[(2,4-difluorobenzyl)(methyl)sulfamoyl]-N-(3,3,3-trifluoro-2-hydroxypropyl)pyridine-2-carboxamide]
39.1%	> 10000 nM	60.5%	> 667 nM	Nc1cc(S(=O)(=O)c2ccc(OC(F)(F)F)cc2)cnc1C(=O)NC1(C(F)(F)F)COC1 [Compound 214, 3-amino-5-{[4-(trifluoromethoxy)phenyl]sulfonyl}-N-[3-(trifluoromethyl)oxetan-3-yl]pyridine-2-carboxamide]
92.7%	1970 nM	102.3%	51.3 nM	Nc1cc(S(=O)(=O)c2ccc(C(F)(F)F)cc2)cnc1C(=O)N1CC2(CCCOC2)C1 [Compound 295, (3-amino-5-{[4-(trifluoromethyl)phenyl]sulfonyl}pyridin-2-yl)(6-oxa-2-azaspiro[3.5]non-2-yl)methanone]
5.4%	> 10000 nM	44.9%	1390 nM	Nc1cc(S(=O)(=O)c2ccc(C(F)(F)F)cc2)cnc1C(=O)N1CCC[C@@H]1CO [Compound 233, (3-amino-5-{[4-(trifluoromethyl)phenyl]sulfonyl}pyridin-2-yl) [(2R)-2-(hydroxymethyl)pyrrolidin-1-yl]methanone]
69.0%	1280 nM	105.5%	40.9 nM	Nc1cc(S(=O)(=O)c2ccc(OC(F)(F)F)cc2)cnc1C(=O)NCCC1OCCO1 [Compound 147, 3-amino-N-[2-(1,3-dioxolan-2-yl)ethyl]-5-{[4-(trifluoromethoxy)phenyl]sulfonyl}pyridine-2-carboxamide]
60.4%	795 nM	100.6%	109 nM	Nc1cc(S(=O)(=O)c2ccc(OC(F)(F)F)cc2)cnc1C(=O)NCCc1ccco1 [Compound 141, 3-amino-N-[2-(furan-2-yl)ethyl]-5-{[4-(trifluoromethoxy)phenyl]sulfonyl}pyridine-2-carboxamide]
37.9%	> 10000 nM	109.3%	19.1 nM	Nc1cc(S(=O)(=O)c2ccc(C(F)(F)F)cc2F)cnc1C(=O)NC[C@@H]1CCOC1 [Compound 114, 3-amino-5-{[2-fluoro-4-(trifluoromethyl)phenyl]sulfonyl}-N-[(3S)-tetrahydrofuran-3-ylmethyl]pyridine-2-carboxamide]
82.4%	539 nM	103.5%	9.6 nM	CC(C)OCC(O)CNC(=O)c1ncc(S(=O)(=O)c2ccc(OC(F)(F)F)cc2F)cc1N (centres unmarked) [Compound 168, 3-amino-5-{[2-fluoro-4-(trifluoromethoxy)phenyl]sulfonyl}-N-[2-hydroxy-3-(propan-2-yloxy)propyl]pyridine-2-carboxamide]
24.0%		98.4%	24.7 nM	CN(Cc1ccc(C(F)(F)F)cc1)S(=O)(=O)c1cnc(C(=O)NCC(O)C(F)(F)F)c(N)c1 (centres unmarked) [Compound 211, 3-amino-5-{methyl[4-(trifluoromethyl)benzyl]sulfamoyl}-N-(3,3,3-trifluoro-2-hydroxypropyl)pyridine-2-carboxamide]
76.4%	337 nM	106.7%	3.9 nM	CC(C)(C)C1CCN(S(=O)(=O)c2cnc(C(=O)NCC(O)C(F)(F)F)c(N)c2)CC1 (centres unmarked) [Compound 197, 3-amino-5-[(4-tert-butylpiperidin-1-yl)sulfonyl]-N-(3,3,3-trifluoro-2-hydroxypropyl)pyridine-2-carboxamide]
3.5%	> 10000 nM	41.4%	1160 nM	CC(C)C[C@H](CO)NC(=O)c1ncc(S(=O)(=O)c2ccc(OC(F)(F)F)cc2)cc1N [Compound 46, 3-amino-N-[(2R)-1-hydroxy-4-methylpentan-2-yl]-5-{[4-(trifluoromethoxy)phenyl]sulfonyl}pyridine-2-carboxamide]
74.1%	157 nM	100.6%	2.6 nM	Nc1cc(S(=O)(=O)c2ccc(C(F)(F)F)cc2F)cnc1C(=O)N1CC(O)(C(F)(F)F)C1 [Compound 112, (3-amino-5-{[2-fluoro-4-(trifluoromethyl)phenyl]sulfonyl}pyridin-2-yl)[3-hydroxy-3-(trifluoromethyl)azetidin-1-yl]methanone]
70.2%	1480 nM	99.0%	91.1 nM	CC(C)(CCO)CNC(=O)c1ncc(S(=O)(=O)c2ccc(OC(F)(F)F)cc2)cc1N [Compound 34, 3-amino-N-(4-hydroxy-2,2-dimethylbutyl)-5-{[4-(trifluoromethoxy)phenyl]sulfonyl}pyridine-2-carboxamide]
46.1%	1090 nM	102.4%	39.3 nM	CC[C@@H](CO)NC(=O)c1ncc(S(=O)(=O)c2ccc(C(F)(F)F)cc2)cc1N [Compound 234, 3-amino-N-[(2S)-1-hydroxybutan-2-yl]-5-{[4-(trifluoromethyl)phenyl]sulfonyl}pyridine-2-carboxamide]
33.0%		96.7%	47.1 nM	Nc1cc(S(=O)(=O)c2ccc(C(F)(F)F)cc2)cnc1C(=O)NCCC(F)(F)F [Compound 212, 3-amino-5-{[4-(trifluoromethyl)phenyl]sulfonyl}-N-(3,3,3-trifluoropropyl)pyridine-2-carboxamide]
45.8%	681 nM	97.3%	21.5 nM	Nc1cc(S(=O)(=O)c2ccc(C(F)(F)F)cc2F)cnc1C(=O)N1CC(OC(F)F)C1 [Compound 161, (3-amino-5-{[2-fluoro-4-(trifluoromethyl)phenyl]sulfonyl}pyridin-2-yl)[3-(difluoromethoxy)azetidin-1-yl]methanone]

Source: US10047051B2, “Substituted pyridines and method of use” (AbbVie S.á{acute over (.)}r.l., priority 2015, dated 2018)
